“Also recorded” adds a separate entry of the source. Where two headings read alike, the source gives them in different places. Where a SMILES comes first, the peptide text is derived from it.

For data set [1], the target named is T1, PA0602 solute binding protein (Pseudomonas aeruginosa, UniProt Q9I5T6). The data set can be described thus: biochemical. Also on record: species or system Pseudomonas aeruginosa PAO1. To be noted: for K D: PA0602, microcalorimetric titration, TMP buffer pH 8. An excerpt:
At times thermal shift assays provide […] results, i.e. although there is binding, the Tm shift induced is only minor.

The target of data set [2] is T2, PA4985 solute binding protein (Pseudomonas aeruginosa, UniProt Q9HUI0). Briefly: biochemical. Also on record: species or system Pseudomonas aeruginosa PAO1. The source says:
PA4985 is an uncharacterized protein. […] .

In data set [3] the target is T1, PA0602 solute binding protein. Particulars: thermal shift assay, Biolog compound arrays, more than 2°C considered significant.
Experimental: (§1) Briefly, assays were carried out using a MyIQ2 Real‐Time PCR instrument (BioRad). Experiments were conducted in 96‐well plates, and each assay mixture contained 20.5 μL of the dialyzed protein at 10–50 μM, 2 μL of 5X SYPRO orange (Life Technologies) and 2.5 μL of ligand solution or the equivalent amount of buffer in the ligand‐free control. Compound arrays PM1, PM2a, PM3B, PM4A, PM5, PM6, PM7, and PM8 from Biolog (Newark) were used. Compounds were dissolved in 50 μL water that, according to the information provided by the manufacturer, corresponds to a concentration of 10–20 mM. […] The protein unfolding curves were monitored by detecting changes in SYPRO Orange fluorescence. The Tm values correspond to the minima of the first derivatives of the raw fluorescence data.
The PA0602 protein was overexpressed in E. coli and purified. Freshly dialyzed protein was submitted to thermal shift assays‐based ligand screening using the Biolog compound arrays PM1, PM2A (both carbon sources), PM3B (nitrogen sources), PM4 (phosphorous and sulfur sources), PM5 (nutrient supplements), PM6, PM7, and PM8 (all peptide nitrogen sources). Ligand binding to the protein typically delays thermal unfolding causing increases in the midpoint of the protein unfolding transition (Tm). Tm increases of more than 2°C are considered significant.
Data set [4] deals with T2, PA4985 solute binding protein. Particulars: thermal shift assay, Biolog compound arrays, more than 2°C considered significant.
Experimental: as §1
Data set [5] has as its target T3, AgtB (PA0604) solute binding protein (Pseudomonas aeruginosa, UniProt Q9I5T4). The data set can be described thus: biochemical.
Experimental: (§2) Experiments were conducted on a VP‐microcalorimeter (Microcal). Proteins were dialyzed into the TMP buffer, placed at a concentration of 20–40 µM into the sample cell and titrated with 0.25–2.5 mM ligand solutions that were prepared using the dialysis buffer immediately before use. […] The mean enthalpies measured from the injection of ligands into the buffer were subtracted from raw titration data before data analysis with the MicroCal version of ORIGIN. Data were fitted with the “One binding site model” of ORIGIN.
The subject of another data set is P. aeruginosa PAO1. The data set can be described thus: Growth experiments with ligand as sole carbon source. Particulars: M9 minimal medium, 10 mM compound, 37°C.
The target of data set [6] is T3, AgtB (PA0604) solute binding protein. Particulars: microcalorimetric titration, TMP buffer pH 8.
Experimental: as §2
The next data set has as its target T4, PA0602 (Pseudomonas aeruginosa, UniProt Q9I5T6).
T4 construct: residues 22-344, signal peptide omitted, N-terminal His-tag with thrombin site, expressed in E. coli BL21 (DE3)
Briefly: Isothermal titration calorimetry (VP-microcalorimeter) of 20-40 µM purified SBP titrated with 0.25-2.5 mM ligand in TMP buffer (5 mM Tris-HCl, 5 mM MES, 5 mM PIPES, 10% glycerol, pH 8), fitted with the one binding site model; temperature not stated.

A further data set addresses T5, PA4985 (Pseudomonas aeruginosa, UniProt Q9HUI0).
T5 construct: residues 40-363, signal peptide omitted, N-terminal His-tag with thrombin site, expressed in E. coli BL21 (DE3)
The data set is described as above.

Another data set has as its system P. aeruginosa. Also on record: method as in Dagorn et al., 2013. To be noted: 10 μM GABA; ref Dagorn et al., 2013; cited from earlier work.
The target of data set [7] is T3, AgtB (PA0604) solute binding protein. To be noted: thermal shift assay, Biolog compound arrays, more than 2°C considered significant.
Experimental: as §1
To identify the ligands that interact with AgtB, we pursued the same strategy and screened for ligand binding using the PM1 to PM8 compound arrays.
In data set [8] the test system is AgtS‐LBD (PA0600, amino acids 22–274). The data set can be described thus: Isothermal titration calorimetry of AgtS‐LBD (small ligand and protein‐protein binding studies). To be noted: for K D (binding of SBP to AgtS‐LBD): 5–10 μM SBP titrated with 50–97 μM AgtS‐LBD, no small ligand; for Protein–protein interaction with AgtS‐LBD, His‐tag‐free protein: His‐tag removed by thrombin, in the presence of GABA (PA0602) or 5‐AMV (AgtB); for K D (binding of ligand‐loaded SBP to AgtS‐LBD): both compartments contained 5 mM 5‐AMV (AgtB) or 1 mM GABA (PA0602). In general terms: In ITC the heat of successive injections is recorded.
Experimental: as §2
Fractions that correspond to cleaved protein were dialyzed overnight into the TMP buffer for ITC experiments.
To address this issue, the individual AgtS‐LBD was produced as a purified, recombinant protein.
To assess the possibility of SBP‐mediated activation of AgtS, we conducted protein‐protein microcalorimetric binding studies (Table 1).
Proteins used for these experiments contained an N‐terminal extension harboring the His‐tag. To exclude the possibility that the presence of this extension impedes protein interaction, the tag was cleaved with thrombin in freshly purified PA0602, AgtB, and AgtS‐LBD and its removal was verified by SDS‐PAGE (Figure A4).

Data set [9] concerns the target T6, AruS‐LBD (PA4982, residues 31–141) (Pseudomonas aeruginosa, UniProt Q9HUI3).
T6 sequence (Q9HUI3 whole entry, looked up): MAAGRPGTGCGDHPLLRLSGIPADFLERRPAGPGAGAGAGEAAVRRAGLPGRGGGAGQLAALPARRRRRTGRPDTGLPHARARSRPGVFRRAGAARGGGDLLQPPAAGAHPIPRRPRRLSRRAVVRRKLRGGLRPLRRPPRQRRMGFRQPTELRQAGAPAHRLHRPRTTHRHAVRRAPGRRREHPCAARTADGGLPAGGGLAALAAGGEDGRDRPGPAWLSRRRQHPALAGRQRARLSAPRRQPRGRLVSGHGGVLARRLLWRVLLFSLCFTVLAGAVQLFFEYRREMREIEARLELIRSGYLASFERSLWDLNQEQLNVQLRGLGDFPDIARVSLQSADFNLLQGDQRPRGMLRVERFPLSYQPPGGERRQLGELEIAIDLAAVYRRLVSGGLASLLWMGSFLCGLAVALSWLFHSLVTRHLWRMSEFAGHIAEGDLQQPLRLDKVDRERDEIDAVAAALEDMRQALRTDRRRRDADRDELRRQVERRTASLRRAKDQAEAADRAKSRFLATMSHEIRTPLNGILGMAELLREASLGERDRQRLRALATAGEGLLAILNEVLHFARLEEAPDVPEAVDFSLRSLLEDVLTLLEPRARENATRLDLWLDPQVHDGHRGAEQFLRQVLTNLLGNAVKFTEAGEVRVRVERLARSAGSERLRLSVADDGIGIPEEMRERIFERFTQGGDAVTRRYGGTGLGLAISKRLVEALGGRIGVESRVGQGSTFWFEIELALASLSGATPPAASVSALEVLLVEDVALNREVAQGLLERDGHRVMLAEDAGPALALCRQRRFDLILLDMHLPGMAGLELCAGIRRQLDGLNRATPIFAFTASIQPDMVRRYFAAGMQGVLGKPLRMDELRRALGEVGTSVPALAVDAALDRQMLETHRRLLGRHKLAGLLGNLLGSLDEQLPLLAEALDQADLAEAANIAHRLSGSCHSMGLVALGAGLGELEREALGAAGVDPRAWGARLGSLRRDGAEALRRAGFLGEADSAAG
Briefly: Bacterial two‐hybrid assay (BACTH). To be noted: BACTH in E. coli BTH101 on X‐Gal plates; no ligand or GABA, 5‐AMV, spermidine or ethylenediamine at 5 mM.
Experimental: Plates were incubated at 30°C for 24–48 h. As a positive control, the plasmids pKT25‐zip and pUT18C‐zip were co‐transformed into E. coli BTH101. Negative controls were E. coli BTH101 harboring pUT18C and pKNT25::AruS (strain K^+T^−), and a strain harboring pUT18C::PA4985 and pKNT25 (strain K^−T^+).
This system is based on an adenylate cyclase that contains two catalytically active domains. […] The resulting increase in cAMP induces the expression of lactose and maltose operons, causing a blue colouration of bacteria on X‐Gal‐containing plates. We generated a plasmid that expresses PA4985 fused to one enzyme subunit (pUT18C::PA4985) and a plasmid encoding a fusion of AruS‐LBD to the other subunit (pKNT25::AruS). E. coli BTH101 was transformed with both plasmids, resulting in strain K^+T^+. The K^+T^− and K^−T^+ are negative control strains that contained one of the plasmid constructs (plus sign) and the empty version of the second plasmid (minus sign). The positive control (C+) was provided by the manufacturer.

The term Kd denotes the equilibrium constant for the complex coming apart. Read a high Kd as lower affinity. As for `NCCCCC(=O)O` [5‐AMV, 5‐aminovalerate], the results for the Kd in [1], in [2] and in data set [5] were 30 ± 2 µM, 1.6 ± 0.1 µM and 17 ± 0.8 µM, respectively. Moreover, the Tm shift in data set [3] was 2.3 °C; in data set [4] it was 7.6 °C. Besides, the “Growth as sole carbon source” value in the data set with P. aeruginosa PAO1 is recorded as “significant growth”.

Consider `C[C@H](N)C(=O)NCC(=O)O` [Ala‐Gly] (H-Ala-Gly-OH), for which the “K D” value in data set [6] is “did not reveal binding”.

As for `NCCN` [Ethylenediamine, ethylenediamine], the values for the Kd at PA0602 and at PA4985 were 103 ± 4 µM and 19 ± 1 µM, respectively. In addition, the Tm shift was 2.0 °C in [3] and 3.5 °C in data set [4].

For the molecule `NCCCC(=O)O` [GABA, γ‐aminobutyrate], the Kd in [1] was 2.3 ± 0.8 µM. The molecule further showed a Kd in [2] of 0.58 ± 0.1 µM. The “K D” value in data set [6] was “did not reveal binding; also recorded: No binding”. Moreover, in the data set with P. aeruginosa, the Cytotoxicity and virulence result is “strongly increased”; the Growth or motility result is “did not modulate”. The “Growth as sole carbon source” value in the data set on P. aeruginosa PAO1 is “significant growth”.

`NCC(=O)N[C@@H](CCC(N)=O)C(=O)O` [Gly‐Gln] (H-Gly-Gln-OH): the “K D” value in [6] is reported as “did not reveal binding”.

Regarding `N=C(N)NCCC[C@H](N)C(=O)O` [L‐Arg], the “K D” value in data set [2] (PA4985, microcalorimetric titration, TMP buffer pH 8) is “No binding”. In addition, the Tm shift entry in data set [4] is reported as “No binding”.

In the case of `CC(=O)N[C@@H]1[C@@H](O)[C@H](O)[C@@H](CO)O[C@@H]1O` [N‐acetyl‐D‐glucosamine], the “K D” value in data set [1] was “absence of binding”; in data set [1] (listed as NADG) it was “No binding”; in [6] it was “absence of binding; also recorded: No binding”. The Tm shift result is listed as “absence of binding” in data set [3], “No binding” in [3] (listed as NADG) and “absence of binding; also recorded: No binding” in data set [7]. The “Binding of small ligand to AgtS‐LBD” value in data set [8] (microcalorimetric titration of AgtS‐LBD) is “did not show binding”.

Turning to `NCCCCNCCCN` [Spermidine, spermidine], the “K D” value in data set [1] is reported as “No binding”. The same molecule displayed a Kd in [2] of 160 ± 23 µM. In addition, the Tm shift result in [3] is “No binding”; in data set [4] it was 2.8 °C. In addition, in the data set with P. aeruginosa PAO1, the “Growth as sole carbon source” value is “significant growth”.

For the molecule `NCCCCN` [putrescine], in [1], the “K D” value is reported as “No binding”. Also, in [3], the Tm shift result is listed as “No binding”.

As for `NCCC(=O)O` [β‐alanine], in [7], the Tm shift entry was “No binding”. For the same molecule, in data set [6], the “K D” value was “No binding”.

B1: PA4985: solute binding protein (SBP_bac_8) of P. aeruginosa PAO1 encoded near the aruSR TCS (protein)
chain: MGSSHHHHHHSSGLVPRGSHMADDGLVVVGYGGAGQKAQEVAFFQPFTQQTGIPVVQSEYNGEMARIKVMADTGHADWDLVQVEGPDLARGCDDGLFERLDWQAIGGKQQLIANAAQECGSAALVWGVAIGYDADRLQQPPASWADFWDVQRFPGKRGLRKRAIYNLEFALLADGVPREQVYPLLATRAGADRAFAKLGQLKPYIQWWEAGAQPAQWLAAGDVVMTSTYTGRIADAHRAGRNLALVWQGSLYGMDYWAVVKGSKRGAEARRFIAFANAPDAQVRYVENIPYGPTNRQAAQRLPAQLASWVPTAPANLEQGLAMDDEFWVEHGEELEERFNAWASQ
Turning to B1, the “PA4985/AruS‐LBD interaction” value in data set [9] is recorded as “did not demonstrate an interaction; also recorded: absence of an PA4985/AruS–LBD interaction”.

B2: PA0602: recombinant His‐tagged solute binding protein (SBP_bac_8) of P. aeruginosa PAO1 (protein)
chain: MGSSHHHHHHSSGLVPRGSHMAEYVTVISFGGANKEAQETAFYKPFKSATGNRVVHGSYNGDLAKLKRMVEISHVSWDVVEVEAPELARGCEEGLFEKLDMAKVGDPADFVPGAVQPCGVGIFVWTTLLAYNPGKVAGSPQGWADFWDVKKFPGKRGLRWGAKYSLEFALMADGVAPKDVYQTLATPAGVERAFRKLDELKPYIHWWKSGQDPVRDLADGTVVMSSAYNGRIAAAQAEKQRLAMVWSGGVYDFDFWALPVGVWKKQLAEEFIRFASQPEQQKAFAENIAYGPANRKAVGLLDPQVAANLPTAPQNMQNAVGMNVAFWAEHGEALEQRFQNWAKR
B2: in data set [8], the “K D (binding of SBP to AgtS‐LBD)” value is recorded as “did not show any binding; also recorded: did not reveal binding; also recorded: No binding”; the “Protein–protein interaction with AgtS‐LBD, His‐tag‐free protein” value is recorded as “did not result in any protein–protein interaction”; the “K D (binding of ligand‐loaded SBP to AgtS‐LBD)” value was “absence of binding”.

B3: AgtB: recombinant His‐tagged solute binding protein (SBP_bac_8) of P. aeruginosa PAO1, part of the agt transporter operon (protein)
chain: MGSSHHHHHHSSGLVPRGSHMAVDLTVVSFGGANKSAQIKAFYEPYQKATGNRIVAGEYNGEMAKVKAMVDTNSVSWDLVEVESPELSRGCDEGLFEELDPAQFGKTEDFVPGAIQPCGVGFFVWSTVLAYNADKLKSAPTSWADFWDIKKFPGKRGLRKGAKYTLEFALMADGVAPKDVYGVLATKEGQDRAFKKLDEIKSSIQWWEAGAQPPQYLASGDVVMSSAYNGRIAAVQKESNLKVVWNGGIYDFDAWAIPKGAKKREETLKFIAFSVQPQQQKTYSENIAYGPANKQAVPLLDKALLKDMPTTPENIQNQVAMDVTFWADYGEQLEQRFNAWAAR
On to B3, for which, in data set [8], the “K D (binding of SBP to AgtS‐LBD)” value was “did not show any binding; also recorded: did not reveal binding; also recorded: No binding”; the “Protein–protein interaction with AgtS‐LBD, His‐tag‐free protein” value was “did not result in any protein–protein interaction”; the “K D (binding of ligand‐loaded SBP to AgtS‐LBD)” value is on record as “absence of binding”.

These data come from publication PMC11113362 (MicrobiologyOpen, 2024).
